Measured values: US9777001B2 (priority 2014, dated 2017)
Counter-ions that a name gives are not always drawn.

Target: human plasma kallikrein (Homo sapiens, UniProt P03952)
Assay: biochemical
Details: purified human plasma kallikrein, substrate S-2302, sodium phosphate buffer pH 7.5

Chain of human plasma kallikrein (P03952 391-638 limits assumed): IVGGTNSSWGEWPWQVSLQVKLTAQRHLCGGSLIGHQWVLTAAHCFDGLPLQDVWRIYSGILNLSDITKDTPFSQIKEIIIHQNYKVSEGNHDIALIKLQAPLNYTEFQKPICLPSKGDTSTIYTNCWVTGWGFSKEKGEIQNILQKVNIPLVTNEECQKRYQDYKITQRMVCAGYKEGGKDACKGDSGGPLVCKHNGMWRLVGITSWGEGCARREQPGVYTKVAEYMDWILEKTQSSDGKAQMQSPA
Chain of human plasma kallikrein (P03952 20-390 partner limits assumed): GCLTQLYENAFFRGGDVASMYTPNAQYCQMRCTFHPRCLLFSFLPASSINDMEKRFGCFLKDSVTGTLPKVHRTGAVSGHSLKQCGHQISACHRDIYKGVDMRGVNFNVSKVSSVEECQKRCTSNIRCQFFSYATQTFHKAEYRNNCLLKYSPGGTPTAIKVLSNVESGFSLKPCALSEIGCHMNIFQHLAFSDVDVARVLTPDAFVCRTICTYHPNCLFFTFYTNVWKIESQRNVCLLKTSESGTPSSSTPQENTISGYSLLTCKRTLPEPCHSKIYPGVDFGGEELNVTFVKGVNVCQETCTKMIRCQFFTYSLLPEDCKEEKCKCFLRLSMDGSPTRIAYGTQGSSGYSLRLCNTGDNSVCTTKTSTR

Ki	SMILES
13 nM	COC(=O)Nc1ccc2c(c1)NC(=O)[C@H](C)CCC[C@H](n1cnc(-c3cc(Cl)ccc3F)cc1=O)c1cc-2ccn1 [Example 49, methyl N-[(10R,14S)-14-[4-(5-chloro-2-fluorophenyl)-6-oxo-1,6-dihydropyrimidin-1-yl]-10-methyl-9-oxo-8,16-diazatricyclo[13.3.1.0^2,7]nonadeca-1(19),2(7),3,5,15,17-hexaen-5-yl]carbamate trifluoroacetate]
3800 nM	C[C@@H]1CCC[C@H](n2cnc(-c3cc(Cl)ccc3OC(F)(F)F)cc2=O)c2cc(ccn2)-c2cc(F)ccc2NC1=O [Example 146, (10R,14S)-14-{4-[5-chloro-2-(trifluoromethoxy)phenyl]-6-oxo-1,6-dihydropyrimidin-1-yl}-4-fluoro-10-methyl-8,16-diazatricyclo[13.3.1.0^2,7]nonadeca-1(19),2(7),3,5,15,17-hexaen-9-one trifluoroacetate]
180 nM	COC(=O)Nc1ccc2c(c1)NC(=O)[C@H](C)CCC[C@H](n1cnc(-c3cc(Cl)cc4cnn(C)c34)cc1=O)c1cc-2ccn1 [Example 120, N-[(10R,14S)-14-[4-(5-chloro-1-methyl-1H-indazol-7-yl)-6-oxo-1,6-1-yl]-10-methyl-9-oxo-8,16-diazatricyclo[13.3.1.0^2,7]nonadeca-1(19),2(7),3,5,15,17-hexaen-5-yl]carbamate]
5 nM	C[C@@H]1CCC[C@H](n2cnc(-c3c(-n4cc(Cl)nn4)ccc(Cl)c3F)cc2=O)c2cc(ccn2)-c2ccccc2NC1=O [Example 58, (10R,14S)-14-{4-[3-chloro-6-(4-chloro-1H-1,2,3-triazol-1-yl)-2-fluorophenyl]-6-oxo-1,6-dihydropyrimidin-1-yl}-10-methyl-8,16-diazatricyclo [13.3.1.0^2,7]nonadeca-1(19),2,4,6,15,17-hexaen-9-one]
900 nM	C[C@@H]1CCC[C@H](n2cnc(-c3cc(Cl)ccc3-c3cnn(C)c3)cc2=O)c2cc(ccn2)-c2cc(F)ccc2NC1=O [Example 66, (10R,14S)-14-{4-[5-chloro-2-(1-methyl-1H-pyrazol-4-yl)phenyl]-6-oxo-1,6-dihydropyrimidin-1-yl}-4-fluoro-10-methyl-8,16-diazatricyclo[13.3.1.0^2,7]nonadeca-1(19),2(7),3,5,15,17-hexaen-9-one]
40 nM	C[C@@H]1CCC[C@H](n2cnc(-c3c(-n4cc(Cl)nn4)ccc(Cl)c3F)cc2=O)c2cc(ccn2)-c2cc(C#N)ccc2NC1=O [Example 98, (10R,14S)-14-{4-[3-Chloro-6-(4-chloro-1H-1,2,3-triazol-1-yl)-2-fluorophenyl]-6-oxo-1,6-dihydropyrimidin-1-yl}-10-methyl-9-oxo-8,16-diazatricyclo[13.3.1.0^2,7]nonadeca-1(19),2(7),3,5,15,17-hexaene-4-carbonitrile trifluoroacetate]
38 nM	C[C@@H]1CCC[C@H](n2cnc(-c3cc(Cl)ccc3-n3cc(C(N)=NO)nn3)cc2=O)c2cc(ccn2)-c2cc(F)ccc2NC1=O [Example 149, 1-(4-chloro-2-{1-[(10R,14S)-4-fluoro-10-methyl-9-oxo-8,16-diazatricyclo [13.3.1.0^2,7]nonadeca-1(19),2(7),3,5,15,17-hexaen-14-yl]-6-oxo-1,6-dihydropyrimidin-4-yl}phenyl)-N-hydroxy-1H-1,2,3-triazole-4-carboximidamide bis-trifluoroacetate]
12 nM	Cc1cn(-c2ccc(Cl)c(F)c2-c2cc(=O)n([C@H]3CCC[C@@H](C)C(=O)Nc4ccc(F)cc4-c4ccnc3c4)cn2)nn1 [Example 137, (10R,14S)-14-{4-[3-chloro-2-fluoro-6-(4-methyl-1H-1,2,3-triazol-1-yl)phenyl]-6-oxo-1,6-dihydropyrimidin-1-yl}-4-fluoro-10-methyl-8,16-diazatricyclo[13.3.1.0^2,7]nonadeca-1(19),2(7),3,5,15,17-hexaen-9-one]
2200 nM	COC(=O)Nc1ccc2c(c1)CCCCCC[C@H](n1cnc(-c3cc(Cl)ccc3-n3cc(Cl)nn3)cc1=O)c1nc-2c[nH]1 [Example 131, methyl N-[(14S)-14-{4-[5-chloro-2-(4-chloro-1H-1,2,3-triazol-1-)phenyl]-6-oxo-1,6-dihydropyrimidin-1-yl}-16,18-diazatricyclo[13.2.1.0^2,7]octadeca-1(17),2,4,6,15 (18)-pentaen-5-yl]carb amate trifluoroacetate]
29 nM	C[C@@H]1CCC[C@H](n2cnc(-c3cc(Cl)ccc3-n3cc(C(F)(F)F)nn3)cc2=O)c2cc(ccn2)-c2cc(F)ccc2NC1=O [Example 135, (10R,14S)-14-(4-{5-chloro-2-[4-(trifluoromethyl)-1H-1,2,3-triazol-1-yl]phenyl}-6-oxo-1,6-dihydropyrimidin-1-yl)-4-fluoro-10-methyl-8,16-diazatricyclo [13.3.1.0^2,7]nonadeca-1(19),2(7),3,5,15,17-hexaen-9-one trifluoroacetate]
8 nM	C[C@@H]1CCC[C@H](n2cnc(-c3cc(Cl)ccc3-n3cc(Cl)nn3)cc2=O)c2cc(ccn2)-c2ccc(C#N)cc2NC1=O [Example 89, (10R,14S)-14-{4-[5-chloro-2-(4-chloro-1H-1,2,3-triazol-1-yl)phenyl]-6-oxo-1,6-dihydropyrimidin-1-yl}-10-methyl-9-oxo-8,16-diazatricyclo[13.3.1.0^2,7]nonadeca-1(19),2(7),3,5,15,17-hexaene-5-carbonitrile trifluoroacetate]
660 nM	C#Cc1ccc2c(c1)NC(=O)[C@H](C)CCC[C@H](n1cnc(-c3cc(Cl)ccc3-n3cc(Cl)nn3)cc1=O)c1cc-2ccn1 [Example 91, (10R,14S)-14-{4-[5-chloro-2-(4-chloro-1H-1,2,3-triazol-1-yl)phenyl]-6-oxo-1,6-dihydropyrimidin-1-yl}-5-ethynyl-10-methyl-8,16-diazatricyclo[13.3.1.0^2,7]nonadeca-1(19),2(7),3,5,15,17-hexaen-9-one]
510 nM	C[C@@H]1CCC[C@H](n2cnc(-c3cc(Cl)ccc3-n3cc(O)nn3)cc2=O)c2cc(ccn2)-c2cc(F)ccc2NC1=O [Example 139, (10R,14S)-14-{4-[5-chloro-2-(4-hydroxy-1H-1,2,3-triazol-1-yl)phenyl]-6-oxo-1,6-dihydropyrimidin-1-yl}-4-fluoro-10-methyl-8,16-diazatricyclo[13.3.1.0^2,7]nonadeca-1(19),2(7),3,5,15,17-hexaen-9-one trifluoroacetate]
30 nM	C[C@@H]1CCC[C@H](n2cnc(-c3cc(Cl)ccc3-n3cc(C(F)F)nn3)cc2=O)c2cc(ccn2)-c2ccccc2NC1=O [Example 94, (10R,14S)-14-(4-{5-chloro-2-[4-(difluoromethyl)-1H-1,2,3-triazol-1-yl]phenyl}-6-oxo-1,6-dihydropyrimidin-1-yl)-10-methyl-8,16-diazatricyclo[13.3.1.0^2,7]nonadeca-1(19),2(7),3,5,15,17-hexaen-9-one]
190 nM	C[C@@H]1CCC[C@H](n2cnc(-c3cc(Cl)ccc3-n3cc(Cl)nn3)cc2=O)c2cc(ccn2)-c2c(Cl)cccc2NC1=O [Example 104, (10R,14S)-3-chloro-14-{4-[5-chloro-2-(4-chloro-1H-1,2,3-triazol-1-yl)phenyl]-6-oxo-1,6-dihydropyrimidin-1-yl}-10-methyl-8,16-diazatricyclo [13.3.1.0^2,7]nonadeca-1(19),2(7),3,5,15,17-hexaen-9-one]
210 nM	C[C@@H]1CCC[C@H](n2cnc(-c3c(Cl)ccc(Cl)c3F)cc2=O)c2cc(ccn2)-c2cc(F)ccc2NC1=O [Example 147, (10R,14S)-14-[4-(3,6-dichloro-2-fluorophenyl)-6-oxo-1,6-dihydropyrimidin-1-yl]-4-fluoro-10-methyl-8,16-diazatricyclo[13.3.1.0^2,7]nonadeca-1(19),2(7),3,5,15,17-hexaen-9-one trifluoroacetate]
100 nM	C[C@@H]1CCC[C@H](n2cnc(-c3cc(Cl)ccc3-n3cc(Cl)nn3)cc2=O)c2cc(ccn2)-c2ccc(Cl)cc2NC1=O [Example 75, (10R,14S)-5-chloro-14-{4-[5-chloro-2-(4-chloro-1H-1,2,3-triazol-1-yl)phenyl]-6-oxo-1,6-dihydropyrimidin-1-yl}-10-methyl-8,16-diazatricyclo [13.3.1.0^2,7]nonadeca-1(19),2(7),3,5,15,17-hexaen-9-one]
19 nM	C[C@@H]1CCC[C@H](n2cnc(-c3cc(Cl)ccc3-n3cc(C#N)nn3)cc2=O)c2cc(ccn2)-c2ccc(C#N)cc2NC1=O [Example 38, (10R,14S)-14-{4-[5-Chloro-2-(4-cyano-1H-1,2,3-triazol-1-yl)phenyl]-6-oxo-1,6-dihydropyrimidin-1-yl}-10-methyl-9-oxo-8,16-diazatricyclo[13.3.1.0^2,7]nonadeca-1(19),2(7),3,5,15,17-hexaene-5-carbonitrile trifluoroacetate]
13 nM	C[C@@H]1CC(O)C[C@H](n2cnc(-c3c(-n4cc(Cl)nn4)ccc(Cl)c3F)cc2=O)c2cc(ccn2)-c2cc(F)ccc2NC1=O (stereo partly drawn) [Example 40, (10R,14S)-14-{4-[3-chloro-6-(4-chloro-1H-1,2,3-triazol-1-yl)-2-fluorophenyl]-6-oxo-1,6-dihydropyrimidin-1-yl}-4-fluoro-12-hydroxy-10-methyl-8,16-diazatricyclo[13.3.1.0^2,7]nonadeca-1(19),2(7),3,5,15,17-hexaen-9-one trifluoroacetate]
26 nM	C[C@@H]1CCC[C@H](n2cnc(-c3cc(Cl)ccc3-n3cc(Cl)nn3)cc2=O)c2cc(ccn2)-c2cc(C#N)ccc2NC1=O [Example 114, (10R,14S)-14-{4-[5-chloro-2-(4-chloro-1H-1,2,3-triazol-1-yl)phenyl]-6-oxo-1,6-dihydropyrimidin-1-yl}-10-methyl-9-oxo-8,16-diazatricyclo[13.3.1.0^2,7]nonadeca-1(19),2(7),3,5,15,17-hexaene-4-carbonitrile trifluoroacetate]
40 nM	C[C@@H]1CCC[C@H](n2cnc(-c3cc(Cl)ccc3-n3cc(Cl)nn3)cc2=O)c2cc(ccn2)-c2ccc(C(F)F)cc2NC1=O [Example 74, (10R,14S)-14-{4-[5-chloro-2-(4-chloro-1H-1,2,3-triazol-1-yl)phenyl]-6-oxo-1,6-dihydropyrimidin-1-yl}-5-(difluoromethyl)-10-methyl-8,16-diazatricyclo [13.3.1.0^2,7]nonadeca-1(19),2(7),3,5,15,17-hexaen-9-one]
